According to PMC4685510, “A Cell Biologist’s Field Guide to Aurora Kinase Inhibitors” (Frontiers in Oncology, 2015):
Read-outs that look alike come from different tables or passages of the source.

Experiments:
Test in all cases: biochemical
Format in all cases: biochemical
[1] = target: T1, 363 human kinases (including Aurora A/B/C) (Homo sapiens, UniProt Q6PHR2); conditions: ULK3; for remaining activity at 0.1 µM: 100 nM; for remaining activity at 0.1 µM / remaining activity at 0.5 µM: read-out: % Enzyme Activity (relative to DMSO controls)
T1 sequence (Q6PHR2 1-472): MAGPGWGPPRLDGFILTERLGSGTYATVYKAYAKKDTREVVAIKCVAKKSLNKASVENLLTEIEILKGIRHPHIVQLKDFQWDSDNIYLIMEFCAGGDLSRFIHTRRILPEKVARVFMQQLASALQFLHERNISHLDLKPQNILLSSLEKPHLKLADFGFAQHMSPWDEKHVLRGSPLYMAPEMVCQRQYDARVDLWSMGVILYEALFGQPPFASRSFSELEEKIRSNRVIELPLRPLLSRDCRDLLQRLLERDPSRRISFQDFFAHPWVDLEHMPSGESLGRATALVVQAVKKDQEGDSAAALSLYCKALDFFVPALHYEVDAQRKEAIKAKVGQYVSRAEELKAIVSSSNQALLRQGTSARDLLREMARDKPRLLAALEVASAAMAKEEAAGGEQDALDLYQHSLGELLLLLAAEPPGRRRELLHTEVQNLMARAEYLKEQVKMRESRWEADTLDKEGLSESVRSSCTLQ
Source text: (§1) However, the Aurora A/B selectivity ratios derived from our in vitro and in vivo data can be compared to prioritize inhibitors.

[2] = target: 363 human kinases (including Aurora A/B/C) (Homo sapiens, UniProt P23458); conditions: JAK1; for remaining activity at 0.1 µM: 100 nM; for remaining activity at 0.1 µM / remaining activity at 0.5 µM: read-out: % Enzyme Activity (relative to DMSO controls)
Source text: as §1

[3] = target: 363 human kinases (including Aurora A/B/C) (Homo sapiens, UniProt Q96SB4); conditions: SRPK1; for remaining activity at 0.1 µM: 100 nM; for remaining activity at 0.1 µM / remaining activity at 0.5 µM: read-out: % Enzyme Activity (relative to DMSO controls)
Source text: as §1

[4] = target: 363 human kinases (including Aurora A/B/C) (Homo sapiens, UniProt P49137); conditions: MAPKAPK2; for remaining activity at 0.1 µM: 100 nM; for remaining activity at 0.1 µM / remaining activity at 0.5 µM: read-out: % Enzyme Activity (relative to DMSO controls)
Source text: as §1

[5] = target: 363 human kinases (including Aurora A/B/C) (Homo sapiens, UniProt P11802); conditions: for remaining activity at 0.1 µM: 100 nM; for remaining activity at 0.1 µM / remaining activity at 0.5 µM: read-out: % Enzyme Activity (relative to DMSO controls); for remaining activity at 0.5 µM / % Enzyme Activity (relative to DMSO controls): 500 nM
Source text: as §1

[6] = target: T2, 363 human kinases (including Aurora A/B/C) (Homo sapiens, UniProt P36897); conditions: ALK5/TGFBR1, [ATP] 100 µM; for remaining activity at 0.1 µM: 100 nM; for remaining activity at 0.1 µM / remaining activity at 0.5 µM: read-out: % Enzyme Activity (relative to DMSO controls)
T2 sequence (P36897 34-503): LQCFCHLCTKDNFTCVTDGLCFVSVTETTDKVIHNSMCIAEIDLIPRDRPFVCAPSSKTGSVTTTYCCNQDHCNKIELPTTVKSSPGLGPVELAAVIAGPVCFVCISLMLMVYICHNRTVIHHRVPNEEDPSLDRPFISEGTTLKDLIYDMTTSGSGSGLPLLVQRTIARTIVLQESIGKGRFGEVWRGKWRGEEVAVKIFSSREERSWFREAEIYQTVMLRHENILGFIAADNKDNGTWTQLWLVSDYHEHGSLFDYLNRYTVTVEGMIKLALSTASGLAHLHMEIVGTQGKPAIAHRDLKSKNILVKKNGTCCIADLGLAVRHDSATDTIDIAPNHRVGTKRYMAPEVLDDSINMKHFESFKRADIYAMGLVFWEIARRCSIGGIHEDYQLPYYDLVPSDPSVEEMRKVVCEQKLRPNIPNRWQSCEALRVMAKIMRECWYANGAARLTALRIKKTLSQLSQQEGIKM
Source text: as §1

[7] = target: T3, 363 human kinases (including Aurora A/B/C) (Homo sapiens, UniProt P42679); conditions: CTK/MATK, [ATP] 100 µM; for remaining activity at 0.1 µM: 100 nM; for remaining activity at 0.1 µM / remaining activity at 0.5 µM: read-out: % Enzyme Activity (relative to DMSO controls)
T3 sequence (P42679 1-507): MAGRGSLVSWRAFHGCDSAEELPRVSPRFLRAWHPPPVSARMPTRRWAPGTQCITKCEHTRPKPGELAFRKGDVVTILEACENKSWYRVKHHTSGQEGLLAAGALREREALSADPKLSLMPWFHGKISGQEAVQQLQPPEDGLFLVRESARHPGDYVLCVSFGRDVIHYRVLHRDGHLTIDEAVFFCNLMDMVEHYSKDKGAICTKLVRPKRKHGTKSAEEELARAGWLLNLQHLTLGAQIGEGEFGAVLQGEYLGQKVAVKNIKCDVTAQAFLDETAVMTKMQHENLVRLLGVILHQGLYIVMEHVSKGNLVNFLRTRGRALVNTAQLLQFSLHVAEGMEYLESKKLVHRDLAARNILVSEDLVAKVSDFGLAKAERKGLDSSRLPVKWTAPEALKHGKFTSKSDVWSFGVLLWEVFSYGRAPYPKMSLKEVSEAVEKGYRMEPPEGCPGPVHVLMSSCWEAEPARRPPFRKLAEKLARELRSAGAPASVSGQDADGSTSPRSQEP
Source text: as §1

[8] = target: 363 human kinases (including Aurora A/B/C) (Homo sapiens, UniProt Q9H1R3); conditions: MLCK2/MYLK2; for remaining activity at 0.1 µM: 100 nM; for remaining activity at 0.1 µM / remaining activity at 0.5 µM: read-out: % Enzyme Activity (relative to DMSO controls)
Source text: as §1

[9] = target: T4, 363 human kinases (including Aurora A/B/C) (Homo sapiens, UniProt Q8NE63); conditions: HIPK4; for remaining activity at 0.1 µM: 100 nM; for remaining activity at 0.1 µM / remaining activity at 0.5 µM: read-out: % Enzyme Activity (relative to DMSO controls)
T4 sequence (Q8NE63 1-616): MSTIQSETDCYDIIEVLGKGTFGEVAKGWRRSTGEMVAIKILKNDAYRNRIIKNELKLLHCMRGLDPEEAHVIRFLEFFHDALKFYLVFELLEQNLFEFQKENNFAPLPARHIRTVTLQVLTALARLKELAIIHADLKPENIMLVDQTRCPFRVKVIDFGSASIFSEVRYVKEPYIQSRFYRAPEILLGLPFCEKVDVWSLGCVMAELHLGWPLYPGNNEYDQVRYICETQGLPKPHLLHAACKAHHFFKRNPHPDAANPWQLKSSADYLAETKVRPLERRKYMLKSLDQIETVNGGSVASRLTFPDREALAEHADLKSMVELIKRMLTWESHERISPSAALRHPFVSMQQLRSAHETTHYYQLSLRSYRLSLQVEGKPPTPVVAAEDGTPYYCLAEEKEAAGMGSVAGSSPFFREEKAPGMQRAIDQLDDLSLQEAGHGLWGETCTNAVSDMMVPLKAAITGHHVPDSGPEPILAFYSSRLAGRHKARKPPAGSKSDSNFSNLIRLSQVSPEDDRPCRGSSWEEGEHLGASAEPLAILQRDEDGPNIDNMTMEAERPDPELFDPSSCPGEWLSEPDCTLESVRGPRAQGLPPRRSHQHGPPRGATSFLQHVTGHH
Source text: as §1

Sequence of 363 human kinases (including Aurora A/B/C) (Homo sapiens, UniProt P49137) (P49137 whole entry): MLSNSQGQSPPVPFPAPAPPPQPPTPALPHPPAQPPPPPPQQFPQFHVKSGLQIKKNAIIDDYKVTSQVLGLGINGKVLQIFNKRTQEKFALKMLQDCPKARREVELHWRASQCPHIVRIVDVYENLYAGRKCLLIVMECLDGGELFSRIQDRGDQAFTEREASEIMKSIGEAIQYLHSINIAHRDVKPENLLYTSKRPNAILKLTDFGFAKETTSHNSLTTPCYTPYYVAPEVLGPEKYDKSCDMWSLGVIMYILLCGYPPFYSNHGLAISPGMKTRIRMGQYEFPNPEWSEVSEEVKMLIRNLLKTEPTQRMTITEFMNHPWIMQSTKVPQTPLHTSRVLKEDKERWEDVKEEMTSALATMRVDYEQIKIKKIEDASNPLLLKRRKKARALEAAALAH
Sequence of 363 human kinases (including Aurora A/B/C) (Homo sapiens, UniProt Q96SB4) (Q96SB4 whole entry): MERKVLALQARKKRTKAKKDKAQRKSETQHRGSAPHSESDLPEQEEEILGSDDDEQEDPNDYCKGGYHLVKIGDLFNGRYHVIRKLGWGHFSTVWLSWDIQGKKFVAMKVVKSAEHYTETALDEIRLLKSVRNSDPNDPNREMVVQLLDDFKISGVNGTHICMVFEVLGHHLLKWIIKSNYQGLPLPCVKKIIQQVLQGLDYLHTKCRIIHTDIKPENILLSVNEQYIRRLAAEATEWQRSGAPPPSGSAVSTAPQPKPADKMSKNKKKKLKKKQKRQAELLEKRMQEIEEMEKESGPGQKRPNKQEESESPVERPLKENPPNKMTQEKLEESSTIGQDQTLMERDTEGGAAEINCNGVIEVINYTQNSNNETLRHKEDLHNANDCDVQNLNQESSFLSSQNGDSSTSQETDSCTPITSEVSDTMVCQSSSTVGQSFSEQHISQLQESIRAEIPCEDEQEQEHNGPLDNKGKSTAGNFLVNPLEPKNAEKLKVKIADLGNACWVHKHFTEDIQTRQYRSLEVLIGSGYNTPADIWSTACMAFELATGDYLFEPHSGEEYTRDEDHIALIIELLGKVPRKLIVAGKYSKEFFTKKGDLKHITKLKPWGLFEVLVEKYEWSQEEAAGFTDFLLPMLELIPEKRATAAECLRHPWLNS
Sequence of 363 human kinases (including Aurora A/B/C) (Homo sapiens, UniProt Q9H1R3) (Q9H1R3 whole entry): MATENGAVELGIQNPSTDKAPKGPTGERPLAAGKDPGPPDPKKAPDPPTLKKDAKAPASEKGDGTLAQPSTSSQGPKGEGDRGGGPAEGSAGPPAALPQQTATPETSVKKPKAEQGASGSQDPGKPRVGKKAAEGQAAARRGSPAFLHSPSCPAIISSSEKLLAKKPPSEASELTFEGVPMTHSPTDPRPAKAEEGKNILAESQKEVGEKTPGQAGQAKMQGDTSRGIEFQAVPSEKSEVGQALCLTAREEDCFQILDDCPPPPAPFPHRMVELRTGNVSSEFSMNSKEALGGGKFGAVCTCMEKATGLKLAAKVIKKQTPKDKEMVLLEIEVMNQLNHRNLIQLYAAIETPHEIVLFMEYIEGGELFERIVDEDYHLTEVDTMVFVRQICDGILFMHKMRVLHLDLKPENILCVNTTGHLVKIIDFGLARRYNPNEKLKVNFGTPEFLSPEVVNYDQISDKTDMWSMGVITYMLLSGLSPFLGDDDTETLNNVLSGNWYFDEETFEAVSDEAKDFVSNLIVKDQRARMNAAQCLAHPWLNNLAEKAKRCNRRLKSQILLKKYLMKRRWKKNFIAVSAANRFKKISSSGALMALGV
Sequence of 363 human kinases (including Aurora A/B/C) (Homo sapiens, UniProt P11802) (P11802 whole entry): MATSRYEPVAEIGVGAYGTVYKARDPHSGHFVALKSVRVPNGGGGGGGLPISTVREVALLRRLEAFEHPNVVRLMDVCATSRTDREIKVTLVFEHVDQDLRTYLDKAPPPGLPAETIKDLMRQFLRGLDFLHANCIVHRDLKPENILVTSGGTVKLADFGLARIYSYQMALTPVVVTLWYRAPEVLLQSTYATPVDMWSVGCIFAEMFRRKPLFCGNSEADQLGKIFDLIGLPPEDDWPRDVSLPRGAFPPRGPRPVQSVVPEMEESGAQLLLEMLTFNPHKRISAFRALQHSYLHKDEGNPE
Sequence of 363 human kinases (including Aurora A/B/C) (Homo sapiens, UniProt P23458) (P23458 whole entry): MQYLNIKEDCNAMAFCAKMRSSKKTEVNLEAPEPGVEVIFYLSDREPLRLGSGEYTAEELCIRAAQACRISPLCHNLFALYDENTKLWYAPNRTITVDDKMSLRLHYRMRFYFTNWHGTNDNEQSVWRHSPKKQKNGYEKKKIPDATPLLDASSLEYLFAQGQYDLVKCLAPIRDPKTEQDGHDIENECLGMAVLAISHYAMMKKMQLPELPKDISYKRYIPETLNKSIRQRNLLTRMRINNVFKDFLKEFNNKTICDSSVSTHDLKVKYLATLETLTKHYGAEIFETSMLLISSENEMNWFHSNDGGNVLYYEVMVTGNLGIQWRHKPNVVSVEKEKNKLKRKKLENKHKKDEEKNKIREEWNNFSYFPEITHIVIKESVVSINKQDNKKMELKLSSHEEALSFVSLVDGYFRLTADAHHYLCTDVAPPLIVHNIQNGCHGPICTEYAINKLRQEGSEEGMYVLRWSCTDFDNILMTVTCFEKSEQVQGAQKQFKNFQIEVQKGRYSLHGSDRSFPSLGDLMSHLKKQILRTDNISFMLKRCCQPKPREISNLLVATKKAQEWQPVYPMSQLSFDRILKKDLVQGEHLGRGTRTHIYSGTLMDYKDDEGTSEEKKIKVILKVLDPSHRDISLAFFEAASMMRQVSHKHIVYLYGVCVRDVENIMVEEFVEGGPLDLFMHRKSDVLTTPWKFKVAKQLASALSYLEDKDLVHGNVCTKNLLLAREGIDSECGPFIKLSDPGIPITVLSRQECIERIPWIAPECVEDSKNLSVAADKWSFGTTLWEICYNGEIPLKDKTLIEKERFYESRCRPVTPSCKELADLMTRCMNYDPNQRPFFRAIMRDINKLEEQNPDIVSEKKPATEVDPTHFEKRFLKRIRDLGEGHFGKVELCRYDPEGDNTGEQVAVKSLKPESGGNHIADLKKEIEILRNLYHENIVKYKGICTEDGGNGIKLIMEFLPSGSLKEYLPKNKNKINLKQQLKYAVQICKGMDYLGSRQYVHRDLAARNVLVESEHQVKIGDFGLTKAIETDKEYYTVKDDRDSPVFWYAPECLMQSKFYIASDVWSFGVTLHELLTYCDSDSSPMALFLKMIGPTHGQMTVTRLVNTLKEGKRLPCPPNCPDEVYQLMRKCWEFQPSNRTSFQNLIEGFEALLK

| SMILES | remaining activity at 0.1 µM [1] [%] | remaining activity at 0.1 µM [2] [%] | remaining activity at 0.1 µM [3] [%] | remaining activity at 0.1 µM [4] [%] | remaining activity at 0.1 µM ([5]; CDK4/cyclin D1, [ATP] 30 µM) [%] | remaining activity at 0.1 µM ([5]; CDK4/cyclin D3, [ATP] 15 µM) [%] | remaining activity at 0.1 µM [6] [%] | remaining activity at 0.1 µM [7] [%] | remaining activity at 0.1 µM [8] [%] | remaining activity at 0.1 µM [9] [%] | remaining activity at 0.5 µM ([1]; 500 nM) [%] | remaining activity at 0.5 µM ([2]; 500 nM) [%] | remaining activity at 0.5 µM ([3]; 500 nM) [%] | remaining activity at 0.5 µM ([4]; 500 nM) [%] | remaining activity at 0.5 µM ([5]; CDK4/cyclin D1, [ATP] 30 µM) [%] | remaining activity at 0.5 µM ([5]; CDK4/cyclin D3, [ATP] 15 µM) [%] | remaining activity at 0.5 µM ([6]; 500 nM) [%] | remaining activity at 0.5 µM ([7]; 500 nM) [%] | remaining activity at 0.5 µM ([8]; 500 nM) [%] | remaining activity at 0.5 µM ([9]; 500 nM) [%] | other results |
| --- | --- | --- | --- | --- | --- | --- | --- | --- | --- | --- | --- | --- | --- | --- | --- | --- | --- | --- | --- | --- | --- |
| CCn1cc(-c2ccnc3[nH]c(-c4cccc(CN(C)C)c4)cc23)c(-c2ccc(NC(=O)N(C)C)cc2)n1 [GSK1070916] | 93.8 | 95.8 | 103 | 95.6 | 97.5 | 95.6 | 106 | 82.4 | 96.2 | 86.9 |  |  |  |  |  |  |  |  |  |  |  |
| O=C(O)[C@]1(Cc2cccc(Nc3nccs3)n2)CC[C@@H](Oc2cccc(Cl)c2F)CC1 [MK-5108] | 89.6 | 99.4 | 101 | 102 | 96.4 | 99 | 116 | 103 | 102 | 24.4 | 62.1 | 61.6 | 95.5 | 100 | 96.1 | 98.8 | 130 | 129 | 97.8 | 5.4 |  |
| O=C(c1cccc(Cl)c1F)N1CCN(Cc2cccc(Nc3nccs3)n2)CC1 [MK-8745] |  |  |  |  |  |  |  |  |  |  | 94.4 | 104 | 101 | 92.9 | 97.2 | 93.1 | 110 | 86.8 | 94.3 | 78.7 | % Enzyme Activity (relative to DMSO controls) ([1]; 500 nM): 93.40%; % Enzyme Activity (relative to DMSO controls) ([2]; 500 nM): 103.50%; % Enzyme Activity (relative to DMSO controls) ([3]; 500 nM): 99.92%; % Enzyme Activity (relative to DMSO controls) ([4]; 500 nM): 92.28%; % Enzyme Activity (relative to DMSO controls) ([5]; CDK4/cyclin D1, [ATP] 30 µM): 96.49%; % Enzyme Activity (relative to DMSO controls) ([5]; CDK4/cyclin D3, [ATP] 15 µM): 93.01%; % Enzyme Activity (relative to DMSO controls) ([6]; 500 nM): 109.55%; % Enzyme Activity (relative to DMSO controls) ([7]; 500 nM): 86.22%; % Enzyme Activity (relative to DMSO controls) ([8]; 500 nM): 94.16%; % Enzyme Activity (relative to DMSO controls) ([9]; 500 nM): 76.34% |
